Measured values as given in US9718828B2 (MERCK SHARP & DOHME CORP., priority 2011, dated 2017).
Counter-ions that a name gives are not always drawn.

Molecular target: hBTK (full-length BTK, 6HIS-tag cleaved) (Homo sapiens (Human), UniProt Q06187)
Experiment: BTK enzymatic activity, LANCE TR-FRET assay (Assay Method C)
Type: biochemical
Details: LANCE TR-FRET, 50 pM hBTK, 25 μM ATP; class 100-1000 is given as ≧100 nM-<1 μM; read-out: IC50 Btk activity values - Assay Method C

Chain of hBTK (full-length BTK, 6HIS-tag cleaved) (Q06187 whole entry): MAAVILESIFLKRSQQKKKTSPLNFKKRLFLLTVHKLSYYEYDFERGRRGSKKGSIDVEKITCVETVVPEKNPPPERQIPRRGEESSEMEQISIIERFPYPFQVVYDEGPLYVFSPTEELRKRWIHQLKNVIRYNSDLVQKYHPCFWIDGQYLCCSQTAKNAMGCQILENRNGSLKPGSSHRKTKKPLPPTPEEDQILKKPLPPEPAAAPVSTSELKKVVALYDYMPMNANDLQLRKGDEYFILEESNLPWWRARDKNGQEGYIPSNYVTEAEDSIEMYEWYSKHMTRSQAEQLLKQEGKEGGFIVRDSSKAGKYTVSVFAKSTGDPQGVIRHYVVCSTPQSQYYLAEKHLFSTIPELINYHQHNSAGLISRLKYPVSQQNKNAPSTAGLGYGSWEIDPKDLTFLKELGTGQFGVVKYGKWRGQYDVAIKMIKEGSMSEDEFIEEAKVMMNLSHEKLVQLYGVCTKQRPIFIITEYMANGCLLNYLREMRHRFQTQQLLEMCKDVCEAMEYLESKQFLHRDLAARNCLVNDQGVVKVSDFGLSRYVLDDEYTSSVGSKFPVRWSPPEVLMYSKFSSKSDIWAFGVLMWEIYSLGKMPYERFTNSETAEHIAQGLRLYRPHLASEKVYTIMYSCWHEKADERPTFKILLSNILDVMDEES

Compound | IC50 [µM]
Cc1cnc(N)c2c(-c3ccc(C(=O)Nc4cc(OC5CC5)ccn4)cc3)nc([C@@H]3CCCN(C(=O)C4(C)COC4)C3)n12 [Example 456, 4-(8-amino-5-methyl-3-{(3R)-1-[(3-methyloxetan-3-yl)carbonyl]piperidin-3-yl}imidazo[1,5-a]pyrazin-1-yl)-N-[4-(cyclopropyloxy)pyridin-2-yl]benzamide] | < 0.01
Nc1nccn2c([C@H]3CC[C@@H](CO)N(C(=O)C4CC4)C3)nc(-c3ccc(C(=O)Nc4cc(C(F)(F)F)ccn4)cc3)c12 [Example 419, 4-{8-amino-3-[(3S,6S)-1-(cyclopropylcarbonyl)-6-(hydroxymethyl)piperidin-3-yl]imidazo[1,5-a]pyrazin-1-yl}-N-[4-(trifluoromethyl)pyridin-2-yl]benzamide] | < 0.01
CC1(C(=O)N2CCC[C@@H](c3nc(-c4ccc(C(=O)Nc5cccnn5)cc4)c4c(N)nccn34)C2)COC1 [Example 357, 4-(8-amino-3-{(3R)-1-[(3-methyloxetan-3-yl)carbonyl]piperidin-3-yl}imidazo[1,5-a]pyrazin-1-yl)-N-pyridazin-3-ylbenzamide] | 0.1 to 1
Cc1ccnc(NC(=O)c2ccc(-c3nc([C@@H]4CCCN(C(=O)C5(C)COC5)C4)n4c(Cl)cnc(N)c34)cc2)c1 [Example 446, 4-(8-amino-5-chloro-3-{(3R)-1-[(3-methyloxetan-3-yl)carbonyl]piperidin-3-yl}imidazo[1,5-a]pyrazin-1-yl)-N-(4-methylpyridin-2-yl)benzamide] | < 0.01
C[C@H]1CC[C@@H](c2nc(-c3ccc(C(=O)Nc4cc(C(F)F)ccn4)cc3F)c3c(N)nccn23)CN1C(=O)C1(C)COC1 [Example 434, 4-(8-amino-3-{(3R,6S)-6-methyl-1-[(3-methyloxetan-3-yl)carbonyl]piperidin-3-yl}imidazo[1,5-a]pyrazin-1-yl)-N-[4-(difluoromethyl)pyridin-2-yl]-3-fluorobenzamide] | < 0.01
Cc1nc(NC(=O)c2ccc(-c3nc([C@@H]4CCCN(C(=O)C5(C)COC5)C4)n4ccnc(N)c34)cc2)sc1C [Example 367, 4-(8-amino-3-{(3R)-1-[(3-methyloxetan-3-yl)carbonyl]piperidin-3-yl}imidazo[1,5-a]pyrazin-1-yl)-N-(4,5-dimethyl-1,3-thiazol-2-yl)benzamide] | < 0.01
COc1ccnc(NC(=O)c2ccc(-c3nc([C@@H]4CCCN(C(=O)C5(C)COC5)C4)n4c(C)cnc(N)c34)cc2)c1 [Example 459, 4-(8-amino-5-methyl-3-{(3R)-1-[(3-methyloxetan-3-yl)carbonyl]piperidin-3-yl}imidazo[1,5-a]pyrazin-1-yl)-N-(4-methoxypyridin-2-yl)benzamide] | < 0.01
Nc1nccn2c([C@@H]3CCCN(C(=O)C4CC4(F)F)C3)nc(-c3ccc(C(=O)Nc4cc(C(F)(F)F)ccn4)cc3)c12 (stereo partly drawn) [Example 344, 4-(8-amino-3-{(3R)-1-[(2,2-difluorocyclopropyl)carbonyl]piperidin-3-yl}imidazo[1,5-a]pyrazin-1-yl)-N-[4-(trifluoromethyl)pyridin-2-yl]benzamide] | < 0.01
COCc1cnc(N)c2c(-c3ccc(C(=O)Nc4cc(C(F)(F)F)ccn4)cc3)nc([C@@H]3CCCN(C(=O)C4(C)COC4)C3)n12 [Example 449, 4-[8-amino-5-(methoxymethyl)-3-{(3R)-1-[(3-methyloxetan-3-yl)carbonyl]piperidin-3-yl}imidazo[1,5-a]pyrazin-1-yl]-N-[4-(trifluoromethyl)pyridin-2-yl]benzamide] | < 0.01
Cc1ccnc(NC(=O)c2ccc(-c3nn([C@@H]4CCCN(C(=O)C5(C)COC5)C4)c4ccnc(N)c34)cc2)c1 [Example 387, 4-(4-amino-1-{(3R)-1-[(3-methyloxetan-3-yl)carbonyl]piperidin-3-yl}-1H-pyrazolo[4,3-c]pyridin-3-yl)-N-(4-methylpyridin-2-yl)benzamide] | < 0.01
C[C@H](O)C(=O)N1CCC[C@@H](c2nc(-c3ccc(C(=O)Nc4cc(C(F)(F)F)ccn4)cc3)c3c(N)nccn23)C1 [Example 345, 4-(8-amino-3-{(3R)-1-[(2S)-2-hydroxypropanoyl]piperidin-3-yl}imidazo[1,5-a]pyrazin-1-yl)-N-[4-(trifluoromethyl)pyridin-2-yl]benzamide] | < 0.01
COCC(=O)N1CCC[C@@H](n2nc(-c3ccc(C(=O)Nc4cc(C(F)(F)F)ccn4)cc3)c3c(N)nccc32)C1 [Example 383, 4-{4-amino-1-[(3R)-1-(methoxyacetyl)piperidin-3-yl]-1H-pyrazolo[4,3-c]pyridin-3-yl}-N-[4-(trifluoromethyl)pyridin-2-yl]benzamide] | < 0.01
Cc1ccnc(NC(=O)c2ccc(-c3nc([C@@H]4CCCN(C(=O)C5(C)COC5)C4)n4ccnc(N)c34)cc2)c1 [Example 352, 4-(8-amino-3-{(3R)-1-[(3-methyloxetan-3-yl)carbonyl]piperidin-3-yl}imidazo[1,5-a]pyrazin-1-yl)-N-(4-methylpyridin-2-yl)benzamide] | < 0.01

Second part, the compound after the results:

IC50 [µM] | Compound
< 0.01 | Cc1cnc(N)c2c(-c3ccc(C(=O)Nc4cc(C(F)(F)F)ccn4)cc3)nc([C@H]3CN(C(=O)[C@H](C)O)CCO3)n12 [Example 543, 4-(8-amino-3-{(2R)-4-[(2S)-2-hydroxypropanoyl]morpholin-2-yl}-5-methylimidazo[1,5-a]pyrazin-1-yl)-N-[4-(trifluoromethyl)pyridin-2-yl]benzamide, TFA salt]
< 0.01 | C[C@H]1CO[C@@H](c2nc(-c3ccc(C(=O)Nc4cc(C(F)(F)F)ccn4)cc3)c3c(N)nccn23)CN1C(=O)C1(C)COC1 [Example 515, 4-(8-amino-3-{(2R,5S)-5-methyl-4-[(3-methyloxetan-3-yl)carbonyl]morpholin-2-yl}imidazo[1,5-a]pyrazin-1-yl)-N-[4-(trifluoromethyl)pyridin-2-yl]benzamide, TFA salt]
< 0.01 | COCCN1CCO[C@@H](c2nc(-c3ccc(C(=O)Nc4cc(C(F)(F)F)ccn4)cc3)c3c(N)ncc(Cl)n23)C1 [Example 542, 4-{8-amino-5-chloro-3-[(2R)-4-(2-methoxyethyl)morpholin-2-yl]imidazo[1,5-a]pyrazin-1-yl}-N-[4-(trifluoromethyl)pyridin-2-yl]benzamide, TFA salt]
< 0.01 | COCC(=O)N1CCO[C@@H](c2nc(-c3ccc(C(=O)Nc4cc(C(F)(F)F)ccn4)cc3)c3c(N)nccn23)C1 [Example 521, 4-{8-amino-3-[(2R)-4-(methoxyacetyl)morpholin-2-yl]imidazo[1,5-a]pyrazin-1-yl}-N-[4-(trifluoromethyl)pyridin-2-yl]benzamide]
< 0.01 | CC1(C(=O)N2CCO[C@@H](c3nc(-c4ccc(C(=O)Nc5cc(C(F)(F)F)ccn5)cc4)c4c(N)ncc(C#N)n34)C2)COC1 [Example 527, 4-(8-amino-5-cyano-3-{(2R)-4-[(3-methyloxetan-3-yl)carbonyl]morpholin-2-yl}imidazo[1,5-a]pyrazin-1-yl)-N-[4-(trifluoromethyl)pyridin-2-yl]benzamide]
< 0.01 | Cn1cc2c(n1)CCC[C@@H]2n1nc(-c2ccc(C(=O)Nc3cc(C(F)(F)F)ccn3)cc2)c2c(N)ncnc21 [Example 558, 4-{4-amino-1-[(4S)-2-methyl-4,5,6,7-tetrahydro-2H-indazol-4-yl]-1H-pyrazolo[3,4-d]pyrimidin-3-yl}-N-[4-(trifluoromethyl)pyridin-2-yl]benzamide, TFA salt]
< 0.01 | Nc1nccn2c([C@H]3CN[C@@H](CO)CO3)nc(-c3ccc(C(=O)Nc4cc(C(F)(F)F)ccn4)cc3)c12 [Example 546, 4-{8-amino-3-[(2R,5S)-5-(hydroxymethyl)morpholin-2-yl]imidazo[1,5-a]pyrazin-1-yl}-N-[4-(trifluoromethyl)pyridin-2-yl]benzamide]
< 0.01 | Nc1nccn2c([C@H]3CN(CC4CC4)CCO3)nc(-c3ccc(C(=O)Nc4cc(C(F)(F)F)ccn4)cc3)c12 [Example 508, 4-{8-amino-3-[(2R)-4-(cyclopropylmethyl)morpholin-2-yl]imidazo[1,5-a]pyrazin-1-yl}-N-[4-(trifluoromethyl)pyridin-2-yl]benzamide]
< 0.01 | C[C@@H](O)C(=O)N1CCO[C@@H](c2nc(-c3ccc(C(=O)Nc4cc(C(F)(F)F)ccn4)cc3)c3c(N)ncc(Cl)n23)C1 [Example 524, 4-(8-amino-5-chloro-3-{(2R)-4-[(2R)-2-hydroxypropanoyl]morpholin-2-yl}imidazo[1,5-a]pyrazin-1-yl)-N-[4-(trifluoromethyl)pyridin-2-yl]benzamide]
< 0.01 | C[C@H](O)c1cnc(N)c2c(-c3ccc(C(=O)Nc4cc(C(F)(F)F)ccn4)cc3)nc([C@@H]3CCCN(C(=O)C4(C)COC4)C3)n12 [Example 466, 4-(8-amino-5-[(1S)-1-hydroxyethyl]-3-{(3R)-1-[(3-methyloxetan-3-yl)carbonyl]piperidin-3-yl}imidazo[1,5-a]pyrazin-1-yl)-N-[4-(trifluoromethyl)pyridin-2-yl]benzamide]
0.01 to 0.1 | CC1(C(=O)N2CCC[C@@H](c3nc(-c4ccc(C(=O)Nc5cc(C(F)(F)F)ccn5)cc4)c4c(N)ncc(C=O)n34)C2)COC1 [Example 464, 4-(8-amino-5-formyl-3-{(3R)-1-[(3-methyloxetan-3-yl)carbonyl]piperidin-3-yl}imidazo[1,5-a]pyrazin-1-yl)-N-[4-(trifluoromethyl)pyridin-2-yl]benzamide]
< 0.01 | COCCC(=O)N1CCO[C@@H](c2nc(-c3ccc(C(=O)Nc4cc(C(F)(F)F)ccn4)cc3)c3c(N)ncc(C)n23)C1 [Example 510, 4-{8-amino-3-[(2R)-4-(3-methoxypropanoyl)morpholin-2-yl]-5-methylimidazo[1,5-a]pyrazin-1-yl}-N-[4-(trifluoromethyl)pyridin-2-yl]benzamide]
< 0.01 | CC1(CN2CCO[C@@H](c3nc(-c4ccc(C(=O)Nc5cc(C(F)(F)F)ccn5)cc4)c4c(N)nccn34)C2)COC1 [Example 507, 4-(8-amino-3-{(2R)-4-[(3-methyloxetan-3-yl)methyl]morpholin-2-yl}imidazo[1,5-a]pyrazin-1-yl)-N-[4-(trifluoromethyl)pyridin-2-yl]benzamide]

Same assay, conditions: Table D; Assay Method C (LANCE TR-FRET), 50 pM hBTK, 25 μM ATP; read-out: IC50 BTK activity value

IC50 [µM] | Compound
0.000403 | Cc1cnc(N)c2c(-c3ccc(C(=O)Nc4cc(OC5CC5)ccn4)cc3)nc([C@@H]3CCCN(C(=O)C4(C)COC4)C3)n12 [Example 456, 4-(8-amino-5-methyl-3-{(3R)-1-[(3-methyloxetan-3-yl)carbonyl]piperidin-3-yl}imidazo[1,5-a]pyrazin-1-yl)-N-[4-(cyclopropyloxy)pyridin-2-yl]benzamide]
0.000656 | COCc1cnc(N)c2c(-c3ccc(C(=O)Nc4cc(C(F)(F)F)ccn4)cc3)nc([C@@H]3CCCN(C(=O)C4(C)COC4)C3)n12 [Example 449, 4-[8-amino-5-(methoxymethyl)-3-{(3R)-1-[(3-methyloxetan-3-yl)carbonyl]piperidin-3-yl}imidazo[1,5-a]pyrazin-1-yl]-N-[4-(trifluoromethyl)pyridin-2-yl]benzamide]
0.000472 | C[C@H](O)C(=O)N1CCC[C@@H](c2nc(-c3ccc(C(=O)Nc4cc(C(F)(F)F)ccn4)cc3)c3c(N)nccn23)C1 [Example 345, 4-(8-amino-3-{(3R)-1-[(2S)-2-hydroxypropanoyl]piperidin-3-yl}imidazo[1,5-a]pyrazin-1-yl)-N-[4-(trifluoromethyl)pyridin-2-yl]benzamide]
